# Columns and labels:
# [1] = target: T1, cloned hERG potassium channels expressed in human embryonic kidney cells (HEK293) (Homo sapiens, UniProt Q12809); assay: FASTPatch hERG Assay (Example F); type: cell-based; settings: HEK293, QPatch HT, room temperature
# T1 construct: expressed in transfected cells; host or cells: HEK293
# Procedure: This assay was used to measure the effects of Compound 1, Compound 2, and Compound 3 on cloned hERG potassium channels expressed in human embryonic kidney cells (HEK293). The in vitro effects of Compound 1, Compound 2, and Compound 3 on the hERG (human ether-a-go-go-related gene) potassium channel current (a surrogate for IKr, the rapidly activating, delayed rectifier cardiac potassium current) expressed in mammalian cells were evaluated at room temperature using the QPatch HT® (Sophion Bioscience A/S, Denmark), an automatic parallel patch clamp system. The test article was evaluated at 0.3, 1, 3, 10, 30 and 100 μM with each concentration tested in three or more cells (n≥3). The duration of exposure to each test article concentration was 3 minutes. A positive control confirmed the sensitivity of the test system to hERG inhibition.
# TrkA [2] = assay: Estimated inhibition of TrkA after oral dose of 10 mg/kg in rats (FIGS. 3 and 4); settings: oral dose of 10 mg/kg in rats; relative to Compound 2 and Compound 3; calculated from plasma concentration and IC50
# Procedure: FIGS. 3 and 4 illustrate the estimated inhibition of TrkA for Compound 1 after an oral dose of 10 mg/kg in rats of relative to Compound 2, and for Compound 1 relative to Compound 3, respectively. The curves in FIGS. 3 and 4 were calculated using the following equation: […]
# where Imin and Imax are the minimum and maximum possible inhibition of the target, respectively, IC50 is the concentration at which the target is inhibited by 50%, C is the concentration of the inhibitor, and n is the Hill slope.
# off-target kinases = assay: KinaseProfiler off-target kinase profiling, full kinase panel (Example H); type: biochemical; settings: 10 μM, ATP near the Km
# Procedure: (§1) Compound 1 was tested for off-target kinase activity at a concentration of 10 μM by Millipore, Inc. in their KinaseProfiler™ service against all the kinases available in their full kinase panel. Compound 1 was run in duplicate at a concentration of ATP near the Km for each individual kinase according to Millipore's specifications. Data are reported as percent of control (POC) and are the average of the two replicates.
# Flt3 = target: T2, Flt3 (Homo sapiens, UniProt P36888); assay: KinaseProfiler kinase profiling; type: biochemical; settings: 10 μM, ATP near Km
# T2 construct: purchased Millipore, Inc. (KinaseProfiler service)
# Procedure: as §1
# TNK2 = target: T3, TNK2 (Homo sapiens, UniProt Q07912); assay: KinaseProfiler kinase profiling; type: biochemical; settings: 10 μM, ATP near Km
# T3 construct: purchased Millipore, Inc. (KinaseProfiler service)
# Procedure: as §1
# p38beta = target: T4, p38beta (Homo sapiens, UniProt Q15759); assay: KinaseProfiler kinase profiling; type: biochemical; settings: 10 μM, ATP near Km
# T4 construct: purchased Millipore, Inc. (KinaseProfiler service)
# Procedure: as §1
# JAK3 = target: T5, JAK3 (Homo sapiens, UniProt P52333); assay: KinaseProfiler kinase profiling; type: biochemical; settings: 10 μM, ATP near Km
# T5 construct: purchased Millipore, Inc. (KinaseProfiler service)
# Procedure: as §1
# JNK1alpha1 = target: T6, JNK1alpha1 (Homo sapiens, UniProt P45983); assay: KinaseProfiler kinase profiling; type: biochemical; settings: 10 μM, ATP near Km
# T6 construct: purchased Millipore, Inc. (KinaseProfiler service)
# Procedure: as §1
# PKCalpha = target: T7, PKCalpha (Homo sapiens, UniProt P17252); assay: KinaseProfiler kinase profiling; type: biochemical; settings: 10 μM, ATP near Km
# T7 construct: purchased Millipore, Inc. (KinaseProfiler service)
# Procedure: as §1
# MARK2 = target: T8, MARK2 (Homo sapiens, UniProt Q7KZI7); assay: KinaseProfiler kinase profiling; type: biochemical; settings: 10 μM, ATP near Km
# T8 construct: purchased Millipore, Inc. (KinaseProfiler service)
# Procedure: as §1
# Met = target: T9, Met (Homo sapiens, UniProt P08581); assay: KinaseProfiler kinase profiling; type: biochemical; settings: 10 μM, ATP near Km
# T9 construct: purchased Millipore, Inc. (KinaseProfiler service)
# Procedure: as §1
# ROCK-II = target: T10, ROCK-II (Homo sapiens, UniProt O75116); assay: KinaseProfiler kinase profiling; type: biochemical; settings: 10 μM, ATP near Km
# T10 construct: purchased Millipore, Inc. (KinaseProfiler service)
# Procedure: as §1
# MKK6 = target: T11, MKK6 (Homo sapiens, UniProt P52564); assay: KinaseProfiler kinase profiling; type: biochemical; settings: 10 μM, ATP near Km
# T11 construct: purchased Millipore, Inc. (KinaseProfiler service)
# Procedure: as §1
# GSK3beta = target: T12, GSK3beta (Homo sapiens, UniProt P49841); assay: KinaseProfiler kinase profiling; type: biochemical; settings: 10 μM, ATP near Km
# T12 construct: purchased Millipore, Inc. (KinaseProfiler service)
# Procedure: as §1
# HIPK3 = target: T13, HIPK3 (Homo sapiens, UniProt Q9H422); assay: KinaseProfiler kinase profiling; type: biochemical; settings: 10 μM, ATP near Km
# T13 construct: purchased Millipore, Inc. (KinaseProfiler service)
# Procedure: as §1
# Flt4 = target: T14, Flt4 (Homo sapiens, UniProt P35916); assay: KinaseProfiler kinase profiling; type: biochemical; settings: 10 μM, ATP near Km
# T14 construct: purchased Millipore, Inc. (KinaseProfiler service)
# T14 sequence (P35916 25-1363): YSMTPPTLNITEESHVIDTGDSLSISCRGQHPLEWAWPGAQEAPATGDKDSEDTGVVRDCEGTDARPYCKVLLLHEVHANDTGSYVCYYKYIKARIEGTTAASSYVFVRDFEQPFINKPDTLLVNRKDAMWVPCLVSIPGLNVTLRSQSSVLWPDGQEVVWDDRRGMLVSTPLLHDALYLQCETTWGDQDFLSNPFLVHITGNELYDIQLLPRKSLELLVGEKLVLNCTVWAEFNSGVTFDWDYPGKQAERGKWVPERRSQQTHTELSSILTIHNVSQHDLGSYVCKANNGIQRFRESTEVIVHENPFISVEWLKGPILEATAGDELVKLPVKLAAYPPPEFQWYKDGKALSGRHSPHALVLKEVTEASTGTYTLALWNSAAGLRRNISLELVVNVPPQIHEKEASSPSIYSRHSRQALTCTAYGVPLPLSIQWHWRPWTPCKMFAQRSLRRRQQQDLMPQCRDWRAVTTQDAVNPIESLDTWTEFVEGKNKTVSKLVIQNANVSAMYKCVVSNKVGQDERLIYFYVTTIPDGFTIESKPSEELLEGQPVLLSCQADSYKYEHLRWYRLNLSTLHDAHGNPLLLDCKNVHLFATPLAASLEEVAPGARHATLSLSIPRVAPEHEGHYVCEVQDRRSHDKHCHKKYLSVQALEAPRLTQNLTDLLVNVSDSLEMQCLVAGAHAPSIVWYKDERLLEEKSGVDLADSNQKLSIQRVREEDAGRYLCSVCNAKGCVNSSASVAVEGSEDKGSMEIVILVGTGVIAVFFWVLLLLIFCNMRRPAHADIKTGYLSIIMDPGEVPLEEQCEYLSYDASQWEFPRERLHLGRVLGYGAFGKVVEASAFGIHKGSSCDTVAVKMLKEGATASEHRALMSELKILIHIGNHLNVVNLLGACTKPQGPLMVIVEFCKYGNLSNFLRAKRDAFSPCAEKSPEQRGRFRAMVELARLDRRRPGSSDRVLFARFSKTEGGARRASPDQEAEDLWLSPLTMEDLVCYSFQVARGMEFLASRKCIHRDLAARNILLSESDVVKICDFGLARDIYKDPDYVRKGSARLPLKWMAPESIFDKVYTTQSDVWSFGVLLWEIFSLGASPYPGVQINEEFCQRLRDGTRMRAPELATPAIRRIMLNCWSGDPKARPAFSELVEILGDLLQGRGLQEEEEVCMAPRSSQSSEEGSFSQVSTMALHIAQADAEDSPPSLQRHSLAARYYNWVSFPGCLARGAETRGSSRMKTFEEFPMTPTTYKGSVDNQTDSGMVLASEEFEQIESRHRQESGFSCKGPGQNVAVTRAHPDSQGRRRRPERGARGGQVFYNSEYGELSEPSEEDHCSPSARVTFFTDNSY
# Procedure: as §1
# HIPK1 = target: T15, HIPK1 (Homo sapiens, UniProt Q86Z02); assay: KinaseProfiler kinase profiling; type: biochemical; settings: 10 μM, ATP near Km
# T15 construct: purchased Millipore, Inc. (KinaseProfiler service)
# T15 sequence (Q86Z02 whole entry): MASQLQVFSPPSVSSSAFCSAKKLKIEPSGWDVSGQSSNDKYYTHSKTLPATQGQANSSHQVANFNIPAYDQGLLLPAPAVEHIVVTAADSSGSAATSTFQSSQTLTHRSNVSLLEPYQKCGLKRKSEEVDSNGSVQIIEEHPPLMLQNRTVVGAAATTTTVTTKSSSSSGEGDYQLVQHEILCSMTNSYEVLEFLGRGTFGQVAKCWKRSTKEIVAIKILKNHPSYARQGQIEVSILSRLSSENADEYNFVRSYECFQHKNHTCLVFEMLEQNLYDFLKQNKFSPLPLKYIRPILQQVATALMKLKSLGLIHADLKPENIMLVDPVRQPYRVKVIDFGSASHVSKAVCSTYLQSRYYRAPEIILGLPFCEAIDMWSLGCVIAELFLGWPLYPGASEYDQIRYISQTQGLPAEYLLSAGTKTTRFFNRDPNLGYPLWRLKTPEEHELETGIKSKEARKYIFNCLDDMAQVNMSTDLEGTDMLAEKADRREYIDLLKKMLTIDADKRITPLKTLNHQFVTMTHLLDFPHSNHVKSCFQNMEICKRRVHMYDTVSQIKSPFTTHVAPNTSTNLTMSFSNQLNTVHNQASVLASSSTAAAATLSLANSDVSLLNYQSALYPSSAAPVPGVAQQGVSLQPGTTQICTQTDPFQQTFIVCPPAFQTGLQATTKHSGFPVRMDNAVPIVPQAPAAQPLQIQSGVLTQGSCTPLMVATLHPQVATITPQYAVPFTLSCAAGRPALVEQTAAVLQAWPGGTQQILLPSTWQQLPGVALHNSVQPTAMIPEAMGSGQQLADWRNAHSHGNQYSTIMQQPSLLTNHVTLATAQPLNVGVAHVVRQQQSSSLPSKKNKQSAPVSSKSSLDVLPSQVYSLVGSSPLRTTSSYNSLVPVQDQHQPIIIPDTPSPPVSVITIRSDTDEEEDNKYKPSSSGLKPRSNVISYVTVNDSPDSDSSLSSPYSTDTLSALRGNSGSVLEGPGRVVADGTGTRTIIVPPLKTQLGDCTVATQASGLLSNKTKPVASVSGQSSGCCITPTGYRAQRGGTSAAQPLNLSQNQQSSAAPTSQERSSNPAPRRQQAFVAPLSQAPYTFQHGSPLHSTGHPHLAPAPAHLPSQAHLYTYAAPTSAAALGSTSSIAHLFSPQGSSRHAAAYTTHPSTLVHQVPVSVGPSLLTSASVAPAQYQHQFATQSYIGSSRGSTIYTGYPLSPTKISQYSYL
# Procedure: as §1
# eEF-2K = target: T16, eEF-2K (Homo sapiens, UniProt O00418); assay: KinaseProfiler kinase profiling; type: biochemical; settings: 10 μM, ATP near Km
# T16 construct: purchased Millipore, Inc. (KinaseProfiler service)
# Procedure: as §1
# Yes = target: T17, Yes (Homo sapiens, UniProt P07947); assay: KinaseProfiler kinase profiling; type: biochemical; settings: 10 μM, ATP near Km
# T17 construct: purchased Millipore, Inc. (KinaseProfiler service)
# T17 sequence (P07947 whole entry): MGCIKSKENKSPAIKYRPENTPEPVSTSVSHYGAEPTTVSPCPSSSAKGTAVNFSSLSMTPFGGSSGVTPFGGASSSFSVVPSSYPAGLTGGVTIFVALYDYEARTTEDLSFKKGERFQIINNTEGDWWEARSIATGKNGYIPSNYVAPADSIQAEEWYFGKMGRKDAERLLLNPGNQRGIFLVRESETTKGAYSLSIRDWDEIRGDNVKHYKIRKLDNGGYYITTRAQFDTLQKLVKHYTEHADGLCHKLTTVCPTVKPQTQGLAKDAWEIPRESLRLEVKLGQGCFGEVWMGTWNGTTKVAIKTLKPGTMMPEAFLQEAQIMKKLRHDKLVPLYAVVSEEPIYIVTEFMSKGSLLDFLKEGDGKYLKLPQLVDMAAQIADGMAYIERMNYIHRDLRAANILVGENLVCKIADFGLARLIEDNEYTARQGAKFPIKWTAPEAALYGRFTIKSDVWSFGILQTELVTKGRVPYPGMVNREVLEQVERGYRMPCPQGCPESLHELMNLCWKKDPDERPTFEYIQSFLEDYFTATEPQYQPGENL
# Procedure: as §1
# IGF-1R Activated = target: T18, IGF-1R Activated (Homo sapiens, UniProt P08069); assay: KinaseProfiler kinase profiling; type: biochemical; settings: 10 μM, ATP near Km
# T18 construct: purchased Millipore, Inc. (KinaseProfiler service)
# Procedure: as §1
# NEK7 = target: T19, NEK7 (Homo sapiens, UniProt Q8TDX7); assay: KinaseProfiler kinase profiling; type: biochemical; settings: 10 μM, ATP near Km
# T19 construct: purchased Millipore, Inc. (KinaseProfiler service)
# Procedure: as §1
# TrkA [3] = target: T20, TrkA (Homo sapiens, UniProt P04629); assay: KinaseProfiler kinase profiling; type: biochemical; settings: 10 μM, ATP near Km
# T20 construct: purchased Millipore, Inc. (KinaseProfiler service)
# Procedure: as §1
# CSK = target: T21, CSK (Homo sapiens, UniProt P41240); assay: KinaseProfiler kinase profiling; type: biochemical; settings: 10 μM, ATP near Km
# T21 construct: purchased Millipore, Inc. (KinaseProfiler service)
# Procedure: as §1
# MINK = target: T22, MINK (Homo sapiens, UniProt Q8N4C8); assay: KinaseProfiler kinase profiling; type: biochemical; settings: 10 μM, ATP near Km
# T22 construct: purchased Millipore, Inc. (KinaseProfiler service)
# Procedure: as §1
# Haspin = target: T23, Haspin (Homo sapiens, UniProt Q8TF76); assay: KinaseProfiler kinase profiling; type: biochemical; settings: 10 μM, ATP near Km
# T23 construct: purchased Millipore, Inc. (KinaseProfiler service)
# Procedure: as §1
# NEK6 = target: T24, NEK6 (Homo sapiens, UniProt Q9HC98); assay: KinaseProfiler kinase profiling; type: biochemical; settings: 10 μM, ATP near Km
# T24 construct: purchased Millipore, Inc. (KinaseProfiler service)
# Procedure: as §1
# CDK5/p25 = target: T25, CDK5/p25 (Homo sapiens, UniProt Q00535); assay: KinaseProfiler kinase profiling; type: biochemical; settings: 10 μM, ATP near Km
# T25 construct: purchased Millipore, Inc. (KinaseProfiler service)
# Procedure: as §1
# AKT2 = target: T26, AKT2 (Homo sapiens, UniProt P31751); assay: KinaseProfiler kinase profiling; type: biochemical; settings: 10 μM, ATP near Km
# T26 construct: purchased Millipore, Inc. (KinaseProfiler service)
# Procedure: as §1
# IRAK1 = target: T27, IRAK1 (Homo sapiens, UniProt P51617); assay: KinaseProfiler kinase profiling; type: biochemical; settings: 10 μM, ATP near Km
# T27 construct: purchased Millipore, Inc. (KinaseProfiler service)
# Procedure: as §1
# TAO1 = target: T28, TAO1 (Homo sapiens, UniProt Q7L7X3); assay: KinaseProfiler kinase profiling; type: biochemical; settings: 10 μM, ATP near Km
# T28 construct: purchased Millipore, Inc. (KinaseProfiler service)
# Procedure: as §1
# EphA2 = target: T29, EphA2 (Homo sapiens, UniProt P29317); assay: KinaseProfiler kinase profiling; type: biochemical; settings: 10 μM, ATP near Km
# T29 construct: purchased Millipore, Inc. (KinaseProfiler service)
# Procedure: as §1
# EphA5 = target: T30, EphA5 (Homo sapiens, UniProt P54756); assay: KinaseProfiler kinase profiling; type: biochemical; settings: 10 μM, ATP near Km
# T30 construct: purchased Millipore, Inc. (KinaseProfiler service)
# Procedure: as §1
# T1 sequence (Q12809 whole entry): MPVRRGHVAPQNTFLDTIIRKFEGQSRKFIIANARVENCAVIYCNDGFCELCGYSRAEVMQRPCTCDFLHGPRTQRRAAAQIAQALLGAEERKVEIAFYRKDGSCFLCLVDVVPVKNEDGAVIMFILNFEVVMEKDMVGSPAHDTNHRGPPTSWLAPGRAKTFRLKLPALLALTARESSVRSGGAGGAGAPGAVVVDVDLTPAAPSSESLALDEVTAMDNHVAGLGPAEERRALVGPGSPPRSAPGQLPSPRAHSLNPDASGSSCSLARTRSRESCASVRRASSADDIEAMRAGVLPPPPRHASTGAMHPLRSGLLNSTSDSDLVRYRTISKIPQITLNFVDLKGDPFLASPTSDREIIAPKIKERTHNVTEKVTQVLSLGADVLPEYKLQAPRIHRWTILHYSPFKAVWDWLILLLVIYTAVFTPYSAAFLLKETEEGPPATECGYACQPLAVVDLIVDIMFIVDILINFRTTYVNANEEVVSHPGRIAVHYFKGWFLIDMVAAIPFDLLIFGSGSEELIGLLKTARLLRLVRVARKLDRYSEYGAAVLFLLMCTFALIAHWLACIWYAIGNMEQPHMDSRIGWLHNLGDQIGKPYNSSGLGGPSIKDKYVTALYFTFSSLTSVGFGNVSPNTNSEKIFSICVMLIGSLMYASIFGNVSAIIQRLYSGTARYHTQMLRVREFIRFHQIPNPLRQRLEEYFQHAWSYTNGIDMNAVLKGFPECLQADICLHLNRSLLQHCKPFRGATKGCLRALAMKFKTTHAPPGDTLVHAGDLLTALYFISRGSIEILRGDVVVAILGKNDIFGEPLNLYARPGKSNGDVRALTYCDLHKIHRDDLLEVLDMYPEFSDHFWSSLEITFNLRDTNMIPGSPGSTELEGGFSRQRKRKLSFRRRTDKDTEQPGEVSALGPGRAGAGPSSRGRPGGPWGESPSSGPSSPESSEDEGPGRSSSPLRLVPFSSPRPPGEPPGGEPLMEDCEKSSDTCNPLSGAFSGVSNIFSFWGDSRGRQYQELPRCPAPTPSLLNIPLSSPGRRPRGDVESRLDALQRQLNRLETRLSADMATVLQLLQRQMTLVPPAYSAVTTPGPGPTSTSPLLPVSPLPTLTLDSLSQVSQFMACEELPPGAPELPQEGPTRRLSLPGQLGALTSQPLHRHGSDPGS
smiles,measurement,setting,value
"COCCN1C[C@@H](NC(=O)Nc2c(C)c(-c3cnc(C)nc3)nn2-c2ccccc2)[C@H](c2ccc(F)c(F)c2)C1 [Compound 2, 1-((3S,4R)-4-(3,4-difluorophenyl)-1-(2-methoxyethyl)pyrrolidin-3-yl)-3-(4-methyl-3-(2-methylpyrimidin-5-yl)-1-phenyl-1H-pyrazol-5-yl)urea]",IC50,[1],6.9 µM
"COCCN1C[C@@H](NC(=O)Nc2c(C)c(-c3cnc(C)nc3)nn2-c2ccccc2)[C@H](c2cccc(F)c2)C1 [Compound 1, 1-((3S,4R)-4-(3-fluorophenyl)-1-(2-methoxyethyl)pyrrolidin-3-yl)-3-(4-methyl-3-(2-methylpyrimidin-5-yl)-1-phenyl-1H-pyrazol-5-yl)urea]",IC50,[1],20 µM
same,estimated inhibition of TrkA,TrkA [2],higher
same,activity against off-target kinases,off-target kinases,largely inactive
same,Avg POC,Flt3,102 POC
same,Avg POC,TNK2,93.5 POC
same,Avg POC,p38beta,102 POC
same,Avg POC,JAK3,95.5 POC
same,Avg POC,JNK1alpha1,95 POC
same,Avg POC,PKCalpha,98.5 POC
same,Avg POC,MARK2,109.5 POC
same,Avg POC,Met,124.5 POC
same,Avg POC,ROCK-II,105.5 POC
same,Avg POC,MKK6,107.5 POC
same,Avg POC,GSK3beta,112 POC
same,Avg POC,HIPK3,90 POC
same,Avg POC,Flt4,98.5 POC
same,Avg POC,HIPK1,98.5 POC
same,Avg POC,eEF-2K,112.5 POC
same,Avg POC,Yes,98.5 POC
same,Avg POC,IGF-1R Activated,105 POC
same,Avg POC,NEK7,104 POC
same,Avg POC,TrkA [3],2.5 POC
same,Avg POC,CSK,100 POC
same,Avg POC,MINK,105 POC
same,Avg POC,Haspin,96.5 POC
same,Avg POC,NEK6,96 POC
same,Avg POC,CDK5/p25,115 POC
same,Avg POC,AKT2,104.5 POC
same,Avg POC,IRAK1,103 POC
same,Avg POC,TAO1,96 POC
same,Avg POC,EphA2,92.5 POC
same,Avg POC,EphA5,109.5 POC
